Usually IC50 stands for the concentration that gives 50% inhibition. The half-life is the time needed for the level to fall by half in the phase considered.

Data set [1] addresses ALK tyrosine kinase receptor (Homo sapiens, UniProt Q9UM73, G1202R). The experiment in a line: Inhibition of ALK G1202R mutant (unknown origin).
The target of data set [2] is ALK tyrosine kinase receptor (Homo sapiens, UniProt Q9UM73). The experiment in a line: Inhibition of wild type ALK (unknown origin).
A short description of data set [3]: Inhibition of ALK L1196M/G1202R mutant (unknown origin). Details: species or system Homo sapiens.
The nature of data set [4]: Antiproliferative activity against mouse Ba/F3 EML4-ALK-G1202R cells assessed as cell growth inhibition by CCK-8 assay. In kind it is functional, cell-based. A general note: Tetrazolium assays rely on reduction of a dye to a coloured formazan, in cell work by metabolically active cells.
The test system of the next data set is BaF3. In words: Antiproliferative activity against EML4-ALK-L1196M/G1202R mutated mouse BaF3 cells assessed as cell growth inhibition by CCK-8 assay. In kind it is functional, cell-based.
The nature of data set [5]: Metabolic stability in human liver microsomes assessed as parent compound remaining measured after 60 mins. The class given is ADME, Microsome. The note with it: read-out: Stability. (In general: Liver microsomes are a subcellular fraction often used to study metabolism.)
Data set [6] in a line: Metabolic stability in human liver microsomes assessed as clearance. The class given is ADME, Microsome. The note with it: read-out: CLH.
A further data set deals with KARPAS-299. The experiment in a line: Antiproliferative activity against human KARPAS-299 cells assessed as cell growth inhibition by CCK-8 assay.
Data set [7] can be described thus: Metabolic stability in human liver microsomes assessed as half life. In kind it is ADME, Microsome.

The structures appear in SMILES notation.

Sequence of ALK tyrosine kinase receptor (Homo sapiens, UniProt Q9UM73) (Q9UM73 whole entry): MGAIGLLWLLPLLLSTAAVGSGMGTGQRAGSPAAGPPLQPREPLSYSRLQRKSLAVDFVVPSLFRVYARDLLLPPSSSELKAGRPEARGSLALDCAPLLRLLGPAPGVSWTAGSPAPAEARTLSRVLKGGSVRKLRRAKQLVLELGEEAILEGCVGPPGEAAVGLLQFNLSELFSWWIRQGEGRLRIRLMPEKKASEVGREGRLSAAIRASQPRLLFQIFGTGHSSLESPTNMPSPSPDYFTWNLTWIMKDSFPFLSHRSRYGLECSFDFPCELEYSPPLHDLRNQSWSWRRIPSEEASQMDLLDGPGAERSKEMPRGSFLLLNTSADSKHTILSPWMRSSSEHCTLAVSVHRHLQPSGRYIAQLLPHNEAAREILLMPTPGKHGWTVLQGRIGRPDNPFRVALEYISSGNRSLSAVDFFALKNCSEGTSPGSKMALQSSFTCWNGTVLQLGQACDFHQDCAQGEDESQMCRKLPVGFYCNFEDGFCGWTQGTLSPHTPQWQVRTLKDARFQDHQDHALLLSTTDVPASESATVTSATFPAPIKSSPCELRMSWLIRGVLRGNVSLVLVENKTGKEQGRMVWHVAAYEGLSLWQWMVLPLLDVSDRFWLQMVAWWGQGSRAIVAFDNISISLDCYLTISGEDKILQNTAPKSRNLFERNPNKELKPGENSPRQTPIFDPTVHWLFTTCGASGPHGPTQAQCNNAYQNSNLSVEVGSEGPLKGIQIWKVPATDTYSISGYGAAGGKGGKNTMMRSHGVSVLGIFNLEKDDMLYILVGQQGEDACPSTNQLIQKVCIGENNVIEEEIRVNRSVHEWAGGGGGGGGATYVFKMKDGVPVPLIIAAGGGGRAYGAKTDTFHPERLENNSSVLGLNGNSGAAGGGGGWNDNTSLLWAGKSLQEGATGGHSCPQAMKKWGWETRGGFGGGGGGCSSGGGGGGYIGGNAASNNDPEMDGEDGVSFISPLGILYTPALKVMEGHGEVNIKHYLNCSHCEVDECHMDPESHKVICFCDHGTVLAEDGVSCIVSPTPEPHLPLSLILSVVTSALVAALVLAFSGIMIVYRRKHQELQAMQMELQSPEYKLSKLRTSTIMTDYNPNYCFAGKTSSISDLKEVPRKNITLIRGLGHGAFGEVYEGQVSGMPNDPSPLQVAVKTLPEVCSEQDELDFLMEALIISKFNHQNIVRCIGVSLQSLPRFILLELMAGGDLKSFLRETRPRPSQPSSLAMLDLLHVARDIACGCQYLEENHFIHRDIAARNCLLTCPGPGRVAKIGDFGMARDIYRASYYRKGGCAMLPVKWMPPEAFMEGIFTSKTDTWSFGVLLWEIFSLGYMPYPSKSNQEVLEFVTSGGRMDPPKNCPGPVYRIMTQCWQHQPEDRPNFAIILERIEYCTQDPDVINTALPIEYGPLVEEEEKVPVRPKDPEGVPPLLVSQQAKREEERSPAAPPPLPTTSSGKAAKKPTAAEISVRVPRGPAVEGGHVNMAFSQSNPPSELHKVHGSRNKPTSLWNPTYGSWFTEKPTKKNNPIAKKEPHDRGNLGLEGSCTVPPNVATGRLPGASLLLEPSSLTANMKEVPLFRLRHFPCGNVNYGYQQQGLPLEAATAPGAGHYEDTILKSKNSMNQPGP
Sequence of ALK tyrosine kinase receptor (Homo sapiens, UniProt Q9UM73, G1202R) (Q9UM73 19-1620 G1202R limits assumed): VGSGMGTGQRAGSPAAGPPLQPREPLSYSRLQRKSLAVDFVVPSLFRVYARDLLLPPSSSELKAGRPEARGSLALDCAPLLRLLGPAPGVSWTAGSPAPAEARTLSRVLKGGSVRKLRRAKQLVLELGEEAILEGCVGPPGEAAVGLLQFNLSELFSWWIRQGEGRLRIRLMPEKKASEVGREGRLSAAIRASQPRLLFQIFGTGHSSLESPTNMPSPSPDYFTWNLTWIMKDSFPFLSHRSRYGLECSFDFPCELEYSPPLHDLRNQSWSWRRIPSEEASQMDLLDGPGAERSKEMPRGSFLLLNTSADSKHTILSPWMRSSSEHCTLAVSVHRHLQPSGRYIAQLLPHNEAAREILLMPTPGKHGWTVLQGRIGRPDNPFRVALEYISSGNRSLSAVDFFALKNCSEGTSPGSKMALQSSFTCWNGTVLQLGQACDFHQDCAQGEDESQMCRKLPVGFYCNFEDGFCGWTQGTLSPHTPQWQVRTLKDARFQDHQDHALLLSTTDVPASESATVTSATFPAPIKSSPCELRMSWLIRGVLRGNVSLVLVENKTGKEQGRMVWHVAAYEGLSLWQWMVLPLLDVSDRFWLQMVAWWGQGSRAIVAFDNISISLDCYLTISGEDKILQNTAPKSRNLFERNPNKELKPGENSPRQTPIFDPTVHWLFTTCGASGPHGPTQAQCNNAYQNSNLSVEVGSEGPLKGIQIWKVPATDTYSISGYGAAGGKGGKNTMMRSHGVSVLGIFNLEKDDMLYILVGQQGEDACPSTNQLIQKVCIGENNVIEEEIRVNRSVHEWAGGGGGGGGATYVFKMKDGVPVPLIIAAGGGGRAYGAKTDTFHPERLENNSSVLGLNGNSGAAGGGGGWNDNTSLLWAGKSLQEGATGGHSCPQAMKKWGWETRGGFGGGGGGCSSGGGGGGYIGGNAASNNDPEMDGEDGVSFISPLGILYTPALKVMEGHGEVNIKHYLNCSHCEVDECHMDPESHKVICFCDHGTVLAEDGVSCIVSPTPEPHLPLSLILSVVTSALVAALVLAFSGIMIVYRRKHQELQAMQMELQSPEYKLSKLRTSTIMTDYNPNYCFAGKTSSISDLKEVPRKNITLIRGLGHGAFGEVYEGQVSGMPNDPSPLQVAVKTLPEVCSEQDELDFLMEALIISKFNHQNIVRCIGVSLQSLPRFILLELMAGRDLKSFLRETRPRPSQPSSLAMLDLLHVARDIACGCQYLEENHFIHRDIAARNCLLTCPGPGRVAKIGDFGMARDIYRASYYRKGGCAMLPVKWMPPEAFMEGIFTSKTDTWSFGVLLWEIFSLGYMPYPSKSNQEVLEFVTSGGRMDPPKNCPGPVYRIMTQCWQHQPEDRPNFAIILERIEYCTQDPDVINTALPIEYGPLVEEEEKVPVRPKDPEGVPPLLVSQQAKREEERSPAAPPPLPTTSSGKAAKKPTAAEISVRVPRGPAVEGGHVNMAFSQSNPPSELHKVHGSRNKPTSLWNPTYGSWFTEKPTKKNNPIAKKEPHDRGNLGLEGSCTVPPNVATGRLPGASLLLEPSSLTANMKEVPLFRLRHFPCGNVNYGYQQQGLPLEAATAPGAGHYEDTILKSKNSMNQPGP

`CN1Cc2cc(F)ccc2OCC(C)(C)NC(=O)c2cnc3ccc1nn23`: the IC50 amounted to 0.019 µM in [1], 0.025 µM in [2] and 0.095 µM in data set [3].

Turning to `CC1(C)COc2ccc(F)cc2CN(C2CCC2)c2ccc3ncc(n3n2)C(=O)N1`, the figures for the IC50 in data set [1], in data set [2] and in data set [3] were 0.2 µM, 0.159 µM and 0.442 µM, respectively.

With `C[C@H]1Nc2ccc3ncc(n3n2)C(=O)NC2(CCC2)COc2ccc(F)cc21`, the results for the IC50 in [1], in [2] and in data set [3] were 0.0047 µM, 0.0076 µM and 0.018 µM, respectively.

As to `C[C@H]1Nc2ccc3ncc(n3n2)C(=O)NCCOc2ccc(F)cc21`, the IC50 was determined as 0.028 µM in [1], 0.013 µM in data set [2] and 0.059 µM in data set [3].

Regarding `C[C@H]1Nc2ccc3ncc(n3n2)C(=O)NC2(CC2)COc2ccc(F)cc21`, the IC50 in [4] is 0.056 µM; in the data set with BaF3 it was 0.076 µM; in data set [1], 0.008 µM; in [2], 0.0042 µM; in data set [3], 0.024 µM; in the data set with KARPAS-299, 0.039 µM. Further, in [5], the remaining at 1 h is 28.8%. Besides, the microsomal CLint in data set [6] was 41 µL/min/mg. Besides, the half-life in [7] is 33.8 min.

In the case of `Cc1cc2ncc3n2nc1N[C@H](C)c1cc(F)ccc1OCC1(CC1)NC3=O`, the half-maximal inhibitory concentration (IC50) in data set [1] turned out to be 0.047 µM; in data set [2] it was 0.018 µM; in data set [3], 0.085 µM.

Take `C[C@H]1CNC(=O)c2cnc3ccc(nn23)N[C@H](C)c2cc(F)ccc2O1`: the IC50 in data set [4] turned out to be 0.084 µM; with BaF3, 0.147 µM; in data set [1], 0.011 µM; in data set [2], 0.0051 µM; in data set [3], 0.022 µM; in the data set with KARPAS-299, 0.072 µM.

Consider `C[C@@H]1Nc2ccc3ncc(n3n2)C(=O)NC2(CC2)COc2ccc(F)cc21`, for which the IC50 was found to be 1 µM in data set [1] and 0.482 µM in data set [2].

Turning to `C=CC[C@H]1Nc2ccc3ncc(n3n2)C(=O)NC2(CC2)COc2ccc(F)cc21`, the IC50 in data set [1] stood at 0.064 µM; in data set [2], 0.0097 µM; in data set [3], 0.0344 µM.

With `CC1(C)COc2ccc(F)cc2CNc2ccc3ncc(n3n2)C(=O)N1`, the IC50 in [1] amounted to 0.02 µM; in [2], 0.019 µM; in data set [3], 0.037 µM.

Take `C[C@H]1Nc2ccc3ncc(n3n2)C(=O)NC(C)(C)COc2ccc(F)cc21`: the IC50 in [1] was determined as 0.0064 µM; in [2] it was 0.0083 µM; in [3], 0.026 µM.

As to `CC1(C)COc2ccc(F)cc2CN(C2CC2)c2ccc3ncc(n3n2)C(=O)N1`, the IC50 in data set [1] worked out at 0.082 µM; in data set [2], 0.077 µM; in data set [3], 0.309 µM.

For `CCN1Cc2cc(F)ccc2OCC(C)(C)NC(=O)c2cnc3ccc1nn23`, the IC50 is 0.022 µM in data set [1], 0.027 µM in data set [2] and 0.084 µM in data set [3].

In the case of `CCC[C@H]1Nc2ccc3ncc(n3n2)C(=O)NC2(CC2)COc2ccc(F)cc21`, the IC50 is 1 µM in [1] and 0.415 µM in data set [2].

With `C[C@H]1Nc2ccc3ncc(n3n2)C(=O)NC2(CC2)COc2ccc(Cl)cc21`, the IC50 in data set [1] turned out to be 0.056 µM; in [2] it was 0.029 µM; in [3], 0.105 µM.

For the compound `C[C@H]1Nc2ccc3ncc(n3n2)C(=O)NC2(CC2)COc2cc(F)ccc21`, the half-inhibitory concentration (IC50) is 0.993 µM in [1], 0.373 µM in data set [2] and 0.984 µM in data set [3].

Take `CC(C)N1Cc2cc(F)ccc2OCC(C)(C)NC(=O)c2cnc3ccc1nn23`: the IC50 in data set [1] is 0.145 µM; in [2] it was 0.099 µM; in [3], 0.328 µM.

On to `C[C@H]1Nc2ccc3ncc(n3n2)C(=O)NC2(CC2)COc2ccccc21`, for which the IC50 in data set [1] came out at 0.098 µM; in [2], 0.027 µM; in [3], 0.173 µM.

As for `C[C@H]1CNC(=O)c2cnn3ccc(nc23)N[C@H](C)c2cc(F)ccc2O1` [REPOTRECTINIB], the IC50 in data set [4] came out at 0.164 µM; in the data set on BaF3, 0.208 µM; in data set [3], 0.02 µM; in the data set with KARPAS-299 it was 0.04 µM. Further, the remaining at 1 h in data set [5] turned out to be 46.1%. The microsomal CLint in data set [6] is 25.6 µL/min/mg. Moreover, in data set [7], the half-life is 54.1 min.

For the origin of these results see ChEMBL document CHEMBL5257114, “Discovery of imidazo[1,2-b]pyridazine macrocyclic derivatives as novel ALK inhibitors capable of combating multiple resistant mutants” (Bioorg Med Chem Lett, 2023).
